Literature values as cited in patent publication US7750010B2, “Tricyclic anilide spirohydantion CGRP receptor antagonists” (Merck Sharp & Dohme Corp., priority 2004, dated 2010).
No end group written: not given here.

How the values were obtained:
facial blood flow [1] = conditions: marmoset, electrical stimulation of the trigeminal ganglion
middle meningeal artery = conditions: rats, electrical stimulation of the dura mater, prior administration
facial blood flow [2] = conditions: rat, trigeminal ganglion stimulation

| Molecule | effect on increase in facial blood flow (facial blood flow [1]) | effect on increase in diameter of the middle meningeal artery (middle meningeal artery) | effect on increased facial blood flow (facial blood flow [2]) |
| --- | --- | --- | --- |
| NCCCC[C@H](NC(=O)[C@@H](Cc1cc(Br)c(O)c(Br)c1)NC(=O)N1CCC(N2Cc3ccccc3NC2=O)CC1)C(=O)N1CCN(c2ccncc2)CC1 [BIBN4096BS] | could be blocked |  |  |
| CGRP(8-37): a fragment of CGRP that lacks seven N-terminal amino acid residues; a peptide CGRP antagonist (VTHRLAGLLSRSGGVVKNNFVPTNVGSKAF; ends and bridges not checked; UniProt P06881 90-119, looked up, fragment) |  | blocked | inhibited |
